{
  "source": "paper PMC3885398",
  "about": "“Evaluation of the Antitumor Effects of BPR1J-340, a Potent and Selective FLT3 Inhibitor, Alone or in Combination with an HDAC Inhibitor, Vorinostat, in AML Cancer” (PLoS ONE, 2014)",
  "key": {"[1]": {"test": "Pharmacokinetic analysis in rats", "type": "in vivo, Sprague-Dawley rats", "procedure": "The uses of animals were approved by The Institutional Care and Use Committee of the National Health Research Institutes. Briefly, male Sprague-Dawley rats weighing 300–400 g each were obtained from BioLASCO, Taiwan Co., Ltd., Ilan, Taiwan. One day prior dosing, rats were surgically prepared with a jugular-vein cannula and fasted overnight (∼18–20 hr). Water was available ad libitum. Food was provided at 4 hours after dosing. Single 1.5 mg/kg intravenous dose of BPR1J-340, as a PEG400/water (80/20, v/v) solution, was separately administered to groups of 3 rats each via the jugular-vein cannula. At 0 (prior to dosing), 2, 5, 15 and 30 min. and at 1, 2, 4, 6, 8 and 24 hr after dosing, a blood sample was collected. Plasma was separated from the blood by centrifugation (14,000 g for 15 min at 4°C in a Beckman Model AllegraTM 6R centrifuge) and stored in a freezer (−20°C) until analysis. All plasma samples were analyzed by LC-MS/MS. Plasma concentration data were analyzed with non-compartmental method for pharmacokinetic determination."}, "AMPK A1/B1/G1": {"target": "T1, AMPK A1/B1/G1 (Homo sapiens, UniProt Q13131)", "T1 construct": "purchased Invitrogen SelectScreen", "test": "Invitrogen SelectScreen kinase profiling", "type": "biochemical", "conditions": "100 nM", "procedure": "(§1) The FLT3 and VEGFR1/2 Kinase-Glo kinase assays were performed as reported by our earlier study. The VEGFR3 activity analysis was conducted using the same protocol described in the VEGFR1/2 assay. The kinase inhibition profiling and inhibitory activity of FLT3-D835Y, CSF1R, and TRKA were determined by Invitrogen SelectScreen® kinase profiling service (Carlsbad, California, USA).\n(§2) BPR1J-340, a urea-substituted 3-phenyl-1H-5-pyrazolylamine-based compound, was designed through chemical modification of sulfonamide series of derivatives (BPR1J-097 series) by a structure-activity relationship (SAR) study (Fig. 1), [32]. For kinase inhibition specificity screening, BPR1J-340 was tested against 59 protein kinases covering the major oncogenic kinases of human protein kinome. […] In addition, BPR1J-340 inhibited TRKA, which is associated with the growth and metastasis of breast cancers, with an IC50 value of 8 nM. Given the high similarity of the ATP binding pockets of FLT3 and the Aurora kinases, the inhibitory activity toward Aurora A and Aurora B were measured. […] Taken together, BPRJ-340 is a selective kinase inhibitor with in vitro activity against FLT3, VEGFR2, VEGFR3 and TRKA receptor tyrosine kinases."}, "PDGFRB (PDGFR beta)": {"target": "T2, PDGFRB (PDGFR beta) (Homo sapiens, UniProt P09619)", "T2 construct": "purchased Invitrogen SelectScreen", "T2 sequence (P09619 33-1106)": "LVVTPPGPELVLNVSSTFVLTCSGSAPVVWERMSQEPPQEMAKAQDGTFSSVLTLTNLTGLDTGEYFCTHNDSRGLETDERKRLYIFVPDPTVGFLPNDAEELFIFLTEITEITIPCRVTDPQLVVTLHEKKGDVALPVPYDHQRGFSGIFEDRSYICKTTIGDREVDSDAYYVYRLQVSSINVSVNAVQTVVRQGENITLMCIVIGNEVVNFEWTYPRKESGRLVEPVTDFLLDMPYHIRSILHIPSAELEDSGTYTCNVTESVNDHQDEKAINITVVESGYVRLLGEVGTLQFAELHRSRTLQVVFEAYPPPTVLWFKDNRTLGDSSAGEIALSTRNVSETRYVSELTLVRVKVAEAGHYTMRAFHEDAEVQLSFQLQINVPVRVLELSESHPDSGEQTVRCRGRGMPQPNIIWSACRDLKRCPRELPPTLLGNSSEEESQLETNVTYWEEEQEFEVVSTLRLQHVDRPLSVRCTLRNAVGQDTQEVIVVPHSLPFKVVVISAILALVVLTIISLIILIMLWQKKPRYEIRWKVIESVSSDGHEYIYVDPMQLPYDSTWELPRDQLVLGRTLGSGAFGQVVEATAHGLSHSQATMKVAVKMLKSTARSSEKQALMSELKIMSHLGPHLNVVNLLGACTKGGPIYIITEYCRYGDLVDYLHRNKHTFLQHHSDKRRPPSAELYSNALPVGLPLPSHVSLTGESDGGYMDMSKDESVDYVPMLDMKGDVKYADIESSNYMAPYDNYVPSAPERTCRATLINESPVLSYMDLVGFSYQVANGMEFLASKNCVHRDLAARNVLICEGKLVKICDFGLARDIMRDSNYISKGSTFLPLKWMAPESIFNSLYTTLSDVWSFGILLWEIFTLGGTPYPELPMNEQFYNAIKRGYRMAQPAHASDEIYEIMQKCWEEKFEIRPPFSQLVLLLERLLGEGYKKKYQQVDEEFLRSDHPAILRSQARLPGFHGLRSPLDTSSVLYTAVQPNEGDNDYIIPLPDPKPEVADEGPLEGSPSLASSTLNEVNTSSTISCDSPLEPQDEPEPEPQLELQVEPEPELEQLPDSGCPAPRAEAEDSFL", "test": "Invitrogen SelectScreen kinase profiling", "type": "biochemical", "conditions": "100 nM", "procedure": "as §1, §2"}, "FLT1 (VEGFR1)": {"target": "T3, FLT1 (VEGFR1) (Homo sapiens, UniProt P17948)", "T3 construct": "purchased Invitrogen SelectScreen", "test": "Invitrogen SelectScreen kinase profiling", "type": "biochemical", "conditions": "100 nM", "procedure": "as §1, §2"}, "NEK1": {"target": "T4, NEK1 (Homo sapiens, UniProt Q96PY6)", "T4 construct": "purchased Invitrogen SelectScreen", "test": "Invitrogen SelectScreen kinase profiling", "type": "biochemical", "conditions": "100 nM", "procedure": "as §1, §2"}, "TYRO3 (RSE)": {"target": "T5, TYRO3 (RSE) (Homo sapiens, UniProt Q06418)", "T5 construct": "purchased Invitrogen SelectScreen", "T5 sequence (Q06418 41-890)": "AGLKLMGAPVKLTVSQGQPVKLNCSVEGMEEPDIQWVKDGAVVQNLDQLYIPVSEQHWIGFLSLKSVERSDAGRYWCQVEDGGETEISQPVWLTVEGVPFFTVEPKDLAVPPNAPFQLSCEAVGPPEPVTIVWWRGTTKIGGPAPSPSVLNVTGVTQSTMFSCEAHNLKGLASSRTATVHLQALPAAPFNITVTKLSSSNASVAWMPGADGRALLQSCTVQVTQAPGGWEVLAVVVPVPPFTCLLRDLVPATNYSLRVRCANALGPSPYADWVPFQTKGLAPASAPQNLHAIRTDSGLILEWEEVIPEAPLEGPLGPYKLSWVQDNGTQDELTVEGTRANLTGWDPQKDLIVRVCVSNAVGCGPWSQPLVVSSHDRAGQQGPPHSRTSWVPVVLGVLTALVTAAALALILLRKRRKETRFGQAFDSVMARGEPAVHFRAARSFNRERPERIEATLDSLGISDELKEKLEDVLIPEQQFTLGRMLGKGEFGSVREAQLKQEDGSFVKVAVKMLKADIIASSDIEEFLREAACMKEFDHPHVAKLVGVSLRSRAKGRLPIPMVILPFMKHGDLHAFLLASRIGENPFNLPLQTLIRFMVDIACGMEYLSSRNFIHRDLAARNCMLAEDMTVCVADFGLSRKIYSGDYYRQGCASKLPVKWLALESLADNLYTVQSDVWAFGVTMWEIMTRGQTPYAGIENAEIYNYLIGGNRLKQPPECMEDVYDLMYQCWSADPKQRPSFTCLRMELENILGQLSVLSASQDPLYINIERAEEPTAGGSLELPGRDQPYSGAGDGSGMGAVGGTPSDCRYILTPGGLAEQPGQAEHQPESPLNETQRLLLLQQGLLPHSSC", "test": "Invitrogen SelectScreen kinase profiling", "type": "biochemical", "conditions": "100 nM", "procedure": "as §1, §2"}, "CHEK2 (CHK2)": {"target": "T6, CHEK2 (CHK2) (Homo sapiens, UniProt O96017)", "T6 construct": "purchased Invitrogen SelectScreen", "test": "Invitrogen SelectScreen kinase profiling", "type": "biochemical", "conditions": "100 nM", "procedure": "as §1, §2"}, "IRAK4": {"target": "T7, IRAK4 (Homo sapiens, UniProt Q9NWZ3)", "T7 construct": "purchased Invitrogen SelectScreen", "T7 sequence (Q9NWZ3 whole entry)": "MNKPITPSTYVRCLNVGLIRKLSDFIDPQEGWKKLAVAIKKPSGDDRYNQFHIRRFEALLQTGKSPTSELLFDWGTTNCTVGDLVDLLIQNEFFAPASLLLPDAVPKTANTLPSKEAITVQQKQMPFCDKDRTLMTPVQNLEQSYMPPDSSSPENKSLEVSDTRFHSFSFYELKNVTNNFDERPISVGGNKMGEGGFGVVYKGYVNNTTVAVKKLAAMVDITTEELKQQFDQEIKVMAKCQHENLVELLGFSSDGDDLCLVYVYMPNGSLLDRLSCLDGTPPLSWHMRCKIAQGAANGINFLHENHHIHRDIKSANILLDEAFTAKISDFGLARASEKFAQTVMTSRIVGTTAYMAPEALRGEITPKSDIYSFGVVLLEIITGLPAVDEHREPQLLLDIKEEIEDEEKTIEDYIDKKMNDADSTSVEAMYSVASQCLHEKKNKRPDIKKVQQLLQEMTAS", "test": "Invitrogen SelectScreen kinase profiling", "type": "biochemical", "conditions": "100 nM", "procedure": "as §1, §2"}, "KIT": {"target": "T8, KIT (Homo sapiens, UniProt P10721)", "T8 construct": "purchased Invitrogen SelectScreen", "T8 sequence (P10721 26-976)": "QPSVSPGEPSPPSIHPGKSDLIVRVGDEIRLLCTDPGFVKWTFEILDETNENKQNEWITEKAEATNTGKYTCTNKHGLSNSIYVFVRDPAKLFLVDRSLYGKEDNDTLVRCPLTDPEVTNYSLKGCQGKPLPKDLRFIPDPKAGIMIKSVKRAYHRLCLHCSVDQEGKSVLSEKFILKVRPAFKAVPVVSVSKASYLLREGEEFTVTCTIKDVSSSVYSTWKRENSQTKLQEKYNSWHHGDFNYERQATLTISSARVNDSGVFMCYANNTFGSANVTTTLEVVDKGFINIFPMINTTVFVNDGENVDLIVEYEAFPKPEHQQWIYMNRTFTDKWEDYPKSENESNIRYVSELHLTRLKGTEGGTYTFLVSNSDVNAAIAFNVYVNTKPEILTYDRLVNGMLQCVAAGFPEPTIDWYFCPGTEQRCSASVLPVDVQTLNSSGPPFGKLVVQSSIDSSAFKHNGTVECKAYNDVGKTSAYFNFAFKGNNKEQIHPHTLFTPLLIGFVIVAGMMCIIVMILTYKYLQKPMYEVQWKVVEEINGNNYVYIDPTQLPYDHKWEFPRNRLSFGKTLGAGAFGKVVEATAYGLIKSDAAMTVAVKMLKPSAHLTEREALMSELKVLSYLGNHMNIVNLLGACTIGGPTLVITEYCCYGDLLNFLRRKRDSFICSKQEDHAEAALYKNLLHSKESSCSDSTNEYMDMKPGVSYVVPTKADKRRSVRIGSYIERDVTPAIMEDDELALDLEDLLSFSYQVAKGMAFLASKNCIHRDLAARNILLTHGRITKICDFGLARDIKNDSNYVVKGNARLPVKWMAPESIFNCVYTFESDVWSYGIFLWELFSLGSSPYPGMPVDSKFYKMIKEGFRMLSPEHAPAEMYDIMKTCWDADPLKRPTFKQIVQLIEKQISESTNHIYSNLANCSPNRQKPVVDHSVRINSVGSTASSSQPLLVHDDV", "test": "Invitrogen SelectScreen kinase profiling", "type": "biochemical", "conditions": "100 nM", "procedure": "as §1, §2"}, "SGK (SGK1)": {"target": "T9, SGK (SGK1) (Homo sapiens, UniProt O00141)", "T9 construct": "purchased Invitrogen SelectScreen", "T9 sequence (O00141 whole entry)": "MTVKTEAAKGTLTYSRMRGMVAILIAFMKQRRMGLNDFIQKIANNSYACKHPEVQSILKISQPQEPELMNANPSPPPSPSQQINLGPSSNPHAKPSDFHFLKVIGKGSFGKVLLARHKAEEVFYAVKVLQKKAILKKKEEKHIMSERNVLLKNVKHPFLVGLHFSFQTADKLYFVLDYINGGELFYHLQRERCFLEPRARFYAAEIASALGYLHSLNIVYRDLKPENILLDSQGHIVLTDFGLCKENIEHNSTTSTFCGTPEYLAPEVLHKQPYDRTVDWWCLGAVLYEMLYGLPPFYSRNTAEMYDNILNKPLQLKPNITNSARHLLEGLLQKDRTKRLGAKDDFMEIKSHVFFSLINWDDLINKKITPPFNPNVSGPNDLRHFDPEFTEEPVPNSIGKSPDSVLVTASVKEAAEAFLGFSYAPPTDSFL", "test": "Invitrogen SelectScreen kinase profiling", "type": "biochemical", "conditions": "100 nM", "procedure": "as §1, §2"}, "FRAP1 (mTOR)": {"target": "T10, FRAP1 (mTOR) (Homo sapiens, UniProt P42345)", "T10 construct": "purchased Invitrogen SelectScreen", "test": "Invitrogen SelectScreen kinase profiling", "type": "biochemical", "conditions": "100 nM", "procedure": "as §1, §2"}, "GSK3A (GSK3 alpha)": {"target": "T11, GSK3A (GSK3 alpha) (Homo sapiens, UniProt P49840)", "T11 construct": "purchased Invitrogen SelectScreen", "test": "Invitrogen SelectScreen kinase profiling", "type": "biochemical", "conditions": "100 nM", "procedure": "as §1, §2"}, "CLK2": {"target": "T12, CLK2 (Homo sapiens, UniProt P49760)", "T12 construct": "purchased Invitrogen SelectScreen", "T12 sequence (P49760 whole entry)": "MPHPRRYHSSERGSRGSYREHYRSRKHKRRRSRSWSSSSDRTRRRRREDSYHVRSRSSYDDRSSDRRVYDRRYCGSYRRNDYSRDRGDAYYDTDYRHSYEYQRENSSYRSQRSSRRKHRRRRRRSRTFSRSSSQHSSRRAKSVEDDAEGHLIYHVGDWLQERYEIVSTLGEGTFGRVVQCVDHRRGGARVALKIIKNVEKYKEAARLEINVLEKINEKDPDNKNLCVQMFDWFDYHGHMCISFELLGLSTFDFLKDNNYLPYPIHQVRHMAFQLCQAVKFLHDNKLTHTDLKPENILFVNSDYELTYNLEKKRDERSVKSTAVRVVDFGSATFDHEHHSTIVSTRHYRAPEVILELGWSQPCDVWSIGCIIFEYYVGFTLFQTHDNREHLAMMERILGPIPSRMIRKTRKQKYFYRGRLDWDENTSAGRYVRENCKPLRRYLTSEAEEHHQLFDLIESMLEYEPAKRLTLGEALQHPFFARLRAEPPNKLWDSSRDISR", "test": "Invitrogen SelectScreen kinase profiling", "type": "biochemical", "conditions": "100 nM", "procedure": "as §1, §2"}, "IGF1R": {"target": "T13, IGF1R (Homo sapiens, UniProt P08069)", "T13 construct": "purchased Invitrogen SelectScreen", "test": "Invitrogen SelectScreen kinase profiling", "type": "biochemical", "conditions": "100 nM", "procedure": "as §1, §2"}, "RPS6KA5 (MSK1)": {"target": "T14, RPS6KA5 (MSK1) (Homo sapiens, UniProt O75582)", "T14 construct": "purchased Invitrogen SelectScreen", "test": "Invitrogen SelectScreen kinase profiling", "type": "biochemical", "conditions": "100 nM", "procedure": "as §1, §2"}, "BTK": {"target": "T15, BTK (Homo sapiens, UniProt Q06187)", "T15 construct": "purchased Invitrogen SelectScreen", "test": "Invitrogen SelectScreen kinase profiling", "type": "biochemical", "conditions": "100 nM", "procedure": "as §1, §2"}, "CSK": {"target": "T16, CSK (Homo sapiens, UniProt P41240)", "T16 construct": "purchased Invitrogen SelectScreen", "test": "Invitrogen SelectScreen kinase profiling", "type": "biochemical", "conditions": "100 nM", "procedure": "as §1, §2"}, "FLT3": {"target": "T17, FLT3 (Homo sapiens, UniProt P36888)", "T17 construct": "purchased Invitrogen SelectScreen", "test": "Invitrogen SelectScreen kinase profiling", "type": "biochemical", "conditions": "100 nM", "procedure": "as §1, §2"}, "AURKA (Aurora A)": {"target": "T18, AURKA (Aurora A) (Homo sapiens, UniProt O14965)", "T18 construct": "purchased Invitrogen SelectScreen", "T18 sequence (O14965 whole entry)": "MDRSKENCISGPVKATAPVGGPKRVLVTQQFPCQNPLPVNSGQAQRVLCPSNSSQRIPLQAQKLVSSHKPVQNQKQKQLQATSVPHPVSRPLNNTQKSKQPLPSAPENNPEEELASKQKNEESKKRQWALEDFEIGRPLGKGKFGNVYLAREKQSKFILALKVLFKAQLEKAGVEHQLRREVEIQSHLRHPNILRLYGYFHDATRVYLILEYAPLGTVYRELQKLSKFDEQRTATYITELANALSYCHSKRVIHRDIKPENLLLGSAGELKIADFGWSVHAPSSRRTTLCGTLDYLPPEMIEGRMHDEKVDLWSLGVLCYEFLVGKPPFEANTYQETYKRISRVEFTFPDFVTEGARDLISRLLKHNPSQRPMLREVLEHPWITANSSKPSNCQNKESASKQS", "test": "Invitrogen SelectScreen kinase profiling", "type": "biochemical", "conditions": "100 nM", "procedure": "as §1, §2"}, "RET": {"target": "T19, RET (Homo sapiens, UniProt P07949)", "T19 construct": "purchased Invitrogen SelectScreen", "test": "Invitrogen SelectScreen kinase profiling", "type": "biochemical", "conditions": "100 nM", "procedure": "as §1, §2"}, "NEK2": {"target": "T20, NEK2 (Homo sapiens, UniProt P51955)", "T20 construct": "purchased Invitrogen SelectScreen", "test": "Invitrogen SelectScreen kinase profiling", "type": "biochemical", "conditions": "100 nM", "procedure": "as §1, §2"}, "AXL": {"target": "T21, AXL (Homo sapiens, UniProt P30530)", "T21 construct": "purchased Invitrogen SelectScreen", "test": "Invitrogen SelectScreen kinase profiling", "type": "biochemical", "conditions": "100 nM", "procedure": "as §1, §2"}},
  "note": "“And” between values parts separate entries of the source, which are not always exact repeats. Equal values may be shown once.",
  "data": [
    {"smiles": "CCc1cc(NC(=O)NCc2ccc(-c3cc(NC(=O)c4ccc(CN5CCN(C)CC5)cc4)[nH]n3)cc2)no1", "note": "[BPR1J-340, N1-(3-4-[([(5-ethyl-3-isoxazolyl)amino]carbonylamino)methyl]phenyl-1H-5-pyrazolyl)-4-[(4-methylpiperazino)methyl]benzamide]", "values": [
      {"measurement": "maximum plasma concentration", "setting": "[1]; Rat IV 1.5 mg/kg, at 2 min after dosing, 1.5 mg/kg", "result": "7.9 µM and 4,296 ng/mL"},
      {"measurement": "plasma concentration maintained for 6 hours", "setting": "[1]; Rat IV 1.5 mg/kg, for 6 hours", "result": "exceeded 80 ng/mL"},
      {"measurement": "T1/2", "setting": "[1]; Rat IV, dose 1.5 mg/kg, listed as BRP1J-340, 1.5 mg/kg", "result": "8.8 ± 0.6", "unit": "h"},
      {"measurement": "maximum achievable plasma concentration above the IC50 for FLT3-ITD inhibition", "setting": "[1]; Rat, single 1.5 mg/kg", "result": "more than 272 fold"},
      {"measurement": "concentration at 24 h", "setting": "[1]; male, Sprague-Dawley, plasma, Rat IV 1.5 mg/kg, 24 hour after dosing, read-out: plasma concentration C24 hour", "result": "9.9 ng/mL and 18 nM"},
      {"measurement": "clearance", "setting": "[1]; male, Sprague-Dawley, plasma, Rat IV, dose 1.5 mg/kg", "result": "20.4 ± 5.2", "unit": "mL/min/kg"},
      {"measurement": "AUC(0-t)", "setting": "[1]; male, Sprague-Dawley, plasma, Rat IV, dose 1.5 mg/kg, read-out: AUC(0–24)", "result": "1130 ± 260", "unit": "ng·h/mL"},
      {"measurement": "Vd", "setting": "[1]; male, Sprague-Dawley, plasma, Rat IV, dose 1.5 mg/kg, read-out: Vss", "result": "10.3 ± 2.5", "unit": "L/kg"},
      {"measurement": "half-life", "setting": "[1]; male, Sprague-Dawley, rat, plasma, iv, 1.5 mg/kg, Rat IV", "result": "~8.8", "unit": "h"},
      {"measurement": "inhibition at 0.1 µM", "setting": "AMPK A1/B1/G1", "result": 30, "unit": "%"},
      {"measurement": "inhibition at 0.1 µM", "setting": "PDGFRB (PDGFR beta)", "result": 39, "unit": "%"},
      {"measurement": "inhibition at 0.1 µM", "setting": "FLT1 (VEGFR1)", "result": 15, "unit": "%"},
      {"measurement": "inhibition at 0.1 µM", "setting": "NEK1", "result": -6, "unit": "%"},
      {"measurement": "inhibition at 0.1 µM", "setting": "TYRO3 (RSE)", "result": 15, "unit": "%"},
      {"measurement": "inhibition at 0.1 µM", "setting": "CHEK2 (CHK2)", "result": -6, "unit": "%"},
      {"measurement": "inhibition at 0.1 µM", "setting": "IRAK4", "result": 4, "unit": "%"},
      {"measurement": "inhibition at 0.1 µM", "setting": "KIT", "result": 66, "unit": "%"},
      {"measurement": "inhibition at 0.1 µM", "setting": "SGK (SGK1)", "result": 11, "unit": "%"},
      {"measurement": "inhibition at 0.1 µM", "setting": "FRAP1 (mTOR)", "result": -8, "unit": "%"},
      {"measurement": "inhibition at 0.1 µM", "setting": "GSK3A (GSK3 alpha)", "result": -1, "unit": "%"},
      {"measurement": "inhibition at 0.1 µM", "setting": "CLK2", "result": -7, "unit": "%"},
      {"measurement": "inhibition at 0.1 µM", "setting": "IGF1R", "result": 12, "unit": "%"},
      {"measurement": "inhibition at 0.1 µM", "setting": "RPS6KA5 (MSK1)", "result": 16, "unit": "%"},
      {"measurement": "inhibition at 0.1 µM", "setting": "BTK", "result": 7, "unit": "%"},
      {"measurement": "inhibition at 0.1 µM", "setting": "CSK", "result": 3, "unit": "%"},
      {"measurement": "inhibition at 0.1 µM", "setting": "FLT3", "result": 97, "unit": "%"},
      {"measurement": "inhibition at 0.1 µM", "setting": "AURKA (Aurora A)", "result": 15, "unit": "%"},
      {"measurement": "inhibition at 0.1 µM", "setting": "RET", "result": 49, "unit": "%"},
      {"measurement": "inhibition at 0.1 µM", "setting": "NEK2", "result": 2, "unit": "%"},
      {"measurement": "inhibition at 0.1 µM", "setting": "AXL", "result": -4, "unit": "%"}
    ]}
  ]
}
